Measurements taken from US12383515B2, “Compositions and methods of use of γ-ketoaldehyde scavengers for treating, preventing or improving nonalcoholic fatty liver disease (NAFLD), NASH, ALD or conditions related to the liver” (MTI Biotech, Inc., priority 2016, dated 2025).
Entries after “also recorded” stand apart in the source; their conditions may differ.

Columns and labels:
C57/BL6J mice = test: NIAAA ethanol model (10 days ethanol in LDLD + binge) of alcoholic liver injury; type: in vivo, mouse; conditions: for Basophils / WBC / eosinophils, % of WBC / lymphocytes, % of WBC / monocytes, % of WBC: 0.5 g/L in LDLD; for AST: serum
Description: 2-HOBA and ethanol were concurrently administered to C57/BL6J mice to establish the efficacy of 2-HOBA in mitigating ethanol-mediated liver dysfunction (increased AST and ALT), reducing γ-KA formation, favorably altering immune responses and stimulating beneficial intracellular signaling pathways. […] 2-HOBA (0.5 g/L in Lieber-DeCarli liquid diet, LDLD) was administered to mice prior to ethanol treatment for 14 days to examine 2-HOBA efficacy in mitigating liver injury. Ethanol (5% v/v) was administered using the NIAAA model (10 days ethanol in LDLD+binge). […] White blood cell and lymphocyte cell counts were reduced while eosinophil and basophil counts were increased with ethanol relative to maltodextrin feeding (Table 1), consistent with other reports of alcoholic liver injury. Such responses were not observed in the presence of 2-HOBA.
An additional cohort of mice were administered a 14-day pretreatment of 2-HOBA (1.0 g/L) prior to administration of ethanol using the NIAAA model. Mice administered ethanol consumed less food and consequently weighed ˜2.5 g less than maltodextrin-fed controls at the end of study.

[1] = 1, 3, and 10 g/L for 7 days; cited from earlier work
DIAMOND mice = test: DIAMOND mouse model of NAFLD/NASH; type: in vivo; conditions: 1 g/L in drinking water, Western diet
Description: Twelve 8-wk old male DIAMOND mice were placed on ad libitum high fat diet (Harlan—ENVIGO TD.88317) and water containing glucose (18.9% w/v) and fructose (23.1% w/v); all mice remained on this diet throughout the study protocol. […] The vehicle control group received water without 2-HOBA (with glucose and fructose). Body weight and food intake were measured weekly. At ˜23 wks of age, all animals underwent a glucose tolerance test (GTT) and MRI imaging to assess hepatic fat. For the GTT, animals were fasted for 12 hours and then glucose (2 g/kg bw of a 100 mg/mL glucose in sterile water) was administered by oral gavage. Blood was sampled at 0, 15, 30, 45, 60, 90, and 120 minutes after glucose administration and area under the curve was calculated. Animals were sacrificed at 24 wks of age (12 weeks of 2-HOBA or vehicle treatment). Tissues and serum were collected for analysis.
Serum levels of glucose, alanine transaminase, and aspartate transaminase were measured. […] Significance was set at α=0.05.

mouse hepatocytes = test: Oxidant mediated cell death induced by t-butylhydroperoxide; type: cell-based; conditions: FIG. 3
Source text: There is considerable interest in identifying appropriate therapeutic interventions aimed at inhibiting the inflammatory processes and interrupting the immunogenic pathways associated with ALD.
This is a remarkable finding given the fact the pathogenesis of oxidative injury is quite complex and multifaceted. […] Obviously, the efficacy of 2-HOBA depends on its accumulation in target tissues, and this was recently supported by pharmacokinetic studies in an in vivo mouse model. […] The levels in the liver were about 10 times higher than in plasma.

HepG2 cells = conditions: varying concentrations of H2O2; cited from earlier work
HepaRG cells = test: Ethanol exposure of HepaRG hepatocytes after 2-HOBA pre-treatment; type: cell-based, human
cyclooxygenase enzymes = conditions: cited from earlier work
[2] = 2-HOBA + ETOH, 2-HOBA 1.0 g/L, 14-day pretreatment
[3] = 2-HOBA + MD, 2-HOBA 1.0 g/L, 14-day pretreatment
[4] = 1 g/L in drinking water, 6 weeks, vs vehicle

NCc1ccccc1O [2-HOBA, 2-Hydroxybenzylamine]
body weight (C57/BL6J mice; 0.5 g/L 2-HOBA in LDLD): not significantly impacted
food intake (C57/BL6J mice; 0.5 g/L 2-HOBA in LDLD): not significantly impacted
increases in serum ALT (C57/BL6J mice; 2-HOBA 0.5 g/L): did not attenuate
increases in serum AST (C57/BL6J mice; 2-HOBA 0.5 g/L): did not attenuate
hepatic isofurans (IsoF) (C57/BL6J mice; 2-HOBA 1.0 g/L + ETOH, FIG. 8): significant reductions; also recorded: ameliorated
hepatic isoprostanes (IsoP) (C57/BL6J mice; 2-HOBA 1.0 g/L + ETOH, FIG. 8): significant reductions; also recorded: ameliorated
kidney isoprostane levels (C57/BL6J mice; 2-HOBA 1.0 g/L + ETOH, P<0.05 versus Con+ETOH): 1.3 ± 0.1 ng/g
Basophils (C57/BL6J mice; 2-HOBA + ETOH): 1.27 ± 0.26^# x10^3/μl
WBC (C57/BL6J mice; 2-HOBA + ETOH): 3.11 ± 0.66 x10^3/μl
eosinophils, % of WBC (C57/BL6J mice; 2-HOBA + ETOH): 2.71 ± 0.46%
lymphocytes, % of WBC (C57/BL6J mice; 2-HOBA + ETOH): 50.4 ± 4.59%
monocytes, % of WBC (C57/BL6J mice; 2-HOBA + ETOH): 6.33 ± 1.11%
ALT (C57/BL6J mice; 2-HOBA + ETOH, 2-HOBA 0.5 g/L): 443.7 ± 66.2 U/L
AST (C57/BL6J mice; 2-HOBA + ETOH, 2-HOBA 0.5 g/L): 1725.0 ± 300.2 U/L
BUN (blood urea nitrogen) (C57/BL6J mice; 2-HOBA + ETOH, 2-HOBA 1.0 g/L): 22.6 ± 1.7 mg/dL
CRE (creatinine) (C57/BL6J mice; 2-HOBA + ETOH, 2-HOBA 1.0 g/L): 0.3 ± 0.04 mg/dL
ALT (C57/BL6J mice; [2]): 164.4±20.8 U/L
AST (C57/BL6J mice; [2]): 676.6±86.7 U/L
WBC (C57/BL6J mice; 2-HOBA + MD (maltodextrin)): 6.08 ± 1.05 x10^3/μl
Basophils (C57/BL6J mice; 2-HOBA + MD): 0.60 ± 0.14 x10^3/μl
eosinophils, % of WBC (C57/BL6J mice; 2-HOBA + MD): 1.79 ± 0.4%
lymphocytes, % of WBC (C57/BL6J mice; 2-HOBA + MD): 58.1 ± 5.45%
monocytes, % of WBC (C57/BL6J mice; 2-HOBA + MD): 6.66 ± 0.92%
ALT (C57/BL6J mice; 2-HOBA + MD, 2-HOBA 0.5 g/L): 54.3 ± 20.1 U/L
AST (C57/BL6J mice; 2-HOBA + MD, 2-HOBA 0.5 g/L): 566.5 ± 34.1 U/L
BUN (blood urea nitrogen) (C57/BL6J mice; 2-HOBA + MD, 2-HOBA 1.0 g/L): 34.6 ± 2.9 mg/dL
CRE (creatinine) (C57/BL6J mice; 2-HOBA + MD, 2-HOBA 1.0 g/L): 0.3 ± 0.05 mg/dL
ALT (C57/BL6J mice; [3]): 127.5 ± 78.59 U/L
AST (C57/BL6J mice; [3]): 693.6 ± 173.1 U/L
hepatic triglyceride content (C57/BL6J mice; ETOH-challenged mice pre-treated with 2-HOBA 1.0 g/L): trended to be lower
ethanol responses: reduced white blood cell and lymphocyte counts, increased eosinophil and basophil counts (C57/BL6J mice; ethanol relative to maltodextrin feeding, 0.5 g/L 2-HOBA): not observed
kidney isoprostane formation (C57/BL6J mice; pre-treatment 14 days at 1.0 g/L): decreased
liver injury (elevated γ-KAs and liver function enzymes) upon ethanol exposure (C57/BL6J mice; pre-treatment with 2-HOBA 1.0 mg/ml (1.0 g/L), 14 days): significantly reduces; also recorded: reduced
levels in the liver relative to plasma [1]: about 10 times
liver levels of 2-HOBA [1]: dose-dependent increases
plasma levels of 2-HOBA [1]: dose-dependent increases
liver weight (DIAMOND mice; FIGS. 15-16): trend for a reduction
liver enzyme ALT (DIAMOND mice; serum, FIG. 16H): significant reduction
liver enzyme AST (DIAMOND mice; serum, FIG. 16I): significant reduction
cell death induced by t-butylhydroperoxide (tBHP) (mouse hepatocytes): almost completely prevented
ALT (STAM mice; [4]): trending towards reduction
insulin (STAM mice; [4]): trending towards reduction
lipids (STAM mice; [4]): trending towards reduction
liver to body weight ratios (STAM mice; [4]): significantly reduced
liver weight (STAM mice; [4]): significantly reduced
serum isoprostanes (STAM mice; [4]): significantly reduced
NAFLD severity (STAM mice; FIG. 12): reduce
NALP1 (STAM mice; liver): decrease
expression of pyruvate dehydrogenase kinase 4 (pdk4) (STAM mice; liver): significantly decreased
signaling through FOXO1 (STAM mice; liver immunoblot): without significantly altering
AKT phosphorylation (STAM mice; liver immunoblot, FIG. 13): dramatically increased
GSK30 phosphorylation (STAM mice; liver immunoblot, FIG. 13): dramatically increased
signaling through ERK (STAM mice; liver immunoblot, FIG. 13): without significantly altering
signaling through mTOR (STAM mice; liver immunoblot, FIG. 13): without significantly altering
markers of hepatic insulin sensitivity (STAM mice; mouse, in vivo): restores
NLRP1-inflammasome activation (STAM mice; oral 2-HOBA administration): blocked
oxidant mediated cell death (HepG2 cells): protective effect
reactive oxygen species formation (HepaRG cells; 24 hr pre-treatment 0, 250, 500 and 1000 μM, ethanol 0-200 mM, 24 hr, FIG. 4A): did not affect
cell death by ethanol (HepaRG cells; 24 hr pre-treatment 0, 250, 500 and 1000 μM, ethanol 0-200 mM, 24 hr, FIG. 4B): almost completely prevented
ALT levels in culture media (HepaRG cells; 24 hr pre-treatment 0, 250, 500 and 1000 μM, ethanol 0-200 mM, 24 hr, FIG. 5A): near normalization
AST levels in culture media (HepaRG cells; 24 hr pre-treatment 0, 250, 500 and 1000 μM, ethanol 0-200 mM, 24 hr, FIG. 5B): near normalization
intensity of ~18 kD anti-D11 cross-reactive (γ-KA adducted) band (HepaRG cells; pre-treatment 250 or 500 μM for 24 hr, ethanol, SDS-PAGE, D11 ScFv, FIG. 6): restored to levels observed in untreated controls
inhibition of cyclooxygenase enzymes (cyclooxygenase enzymes): does not inhibit
